In patent US4517180A, “Peptides, process for preparing the same and psychodepressant compositions containing the same” (Amano Pharmaceutical Co., Ltd, priority 1982, dated 1985):
Where a SMILES comes first, the peptide text is derived from it.

Columns and labels:
Format in all cases: in vivo
[1] = test system: Male ddy mice; test: Effect on hyperlocomotion induced by thyrotropin releasing hormone (TRH); settings: for Activity counts (frequency per 60 min): Mean ± S.E.: 30 min before TRH 5 mg/kg i.p., control 1215 ± 114; for Effect on hyperlocomotion induced by TRH (in words): mice, s.c.
Method: Effect on hyperlocomotion induced by thyrotropin releasing hormone (TRH)
Male ddy mice (weighing 18 to 24.5 g) were used. The mice were placed into a transparent acrylic resin cage (26×37×11 cm) installed on Animex meter. Before experiment, the mice were allowed to habituate for 2 hours in the cage to fully lower the activity of the mice. After the completion of habituation, peptide A, peptide B or a diluent (physiological saline containing 1 mg/ml of sodium hydrogencarbonate) serving as a control was subcutaneously given to the mice. Thirty minutes thereafter, 5 mg/kg of TRH was intraperitoneally given to the animals. The activity counts during the period of 60 minutes following the administration of TRH was measured. Student's t-test was resorted to for statistical treatment.

[2] = test system: Male ddy mice; test: Effect on climbing behavior induced by apomorphine (Pharmacological Test 2); parameters: key to Average: Mean ± S.E. (total of 7 scores), climbing behavior: sum of 7 scores; 0 = all four legs on floor, 2 = ≥3 legs on rods; settings: for Average: Mean ± S.E. (total of 7 scores), climbing behavior: 30 min before apomorphine 0.75 mg/kg s.c., control 9.8 ± 0.7; for Effect on apomorphine-induced climbing behavior (in words): mice, s.c.
Method: (§1) Effect on climbing behavior induced by apomorphine
Male ddy mice (weighing 20 to 30 g) were used, with 10 mice in each group. Each mouse was placed into a cylindrical cage, 12 cm in diameter and 14 cm in height, made up of vertical rods of 2 mm in diameter spaced apart at a distance of 10 mm in a circular arrangement. The mouse was allowed to stand therein for 2 hours. Peptide A, peptide B, CCK-8 or, as a control, the above-mentioned diluent was subcutaneously given to the animal, and 30 minutes later, 0.75 mg/kg of apomorphine was subcutaneously given. […] The test was carried out in soundproof compartments.
(§2) 0: All the four legs are on the floor.
(§3) 2: At least three legs are on rods.
Student's t-test was resorted to for statistical treatment.

[3] = test system: male Wister rats; test: Effect on metabolism of amine in the brain; settings: 1 mg/kg s.c., 1 hour after administration
Method: Effect on metabolism of amine in the brain
Unfasted male Wister rats (weighing 180 to 220 g) were used. Peptide A or peptide B was subcutaneously given to the animal at a dose of 1 mg/kg, the head was irradiated with microwave 1 hour thereafter, and amine metabolite was extracted from the brain. First, removed tissues were homogenized with 1M formic acid and centrifuged at 20,000×g for 20 minutes, and the supernatant (1 ml) was shaken with 5 ml of ethyl acetate. The 3,4-dihydroxyphenylacetic acid (DOPAC), homovanillic acid (HVA) and 5-hydroxyindoleacetic acid (5-HIAA) in the ethyl acetate layer were analyzed by high-performance liquid chromatography under the following conditions. Chemcosorb, 5-ODS, 20 cm×4.6 mm I.D. was used for a separating column, and a mobile phase (0.1M KH2 PO4 (pH 5.0)-5 mM EDTA-2Na-5% acetonitrile) was passed through the colunn at a flow rate of 1 ml/min. The electrochemical detector was set to an oxidation potential of +0.8 V.

[4] = test system: male Wister rats; test: Effect on yawning behavior induced by apomorphine; settings: for Number of yawns (average): 30 min before apomorphine 0.03 mg/kg s.c., counted 30 min, control 4.5; for Effect on yawning behavior induced by apomorphine (in words): rats, s.c.
Method: Effect on yawning behavior
Male Wister rats (weighing 200 to 300 g) were used, with 10 rats in each group. The rat was placed into a plastics cage (17×24×12 cm) with a floor mat and was then habituated for 30 minutes. Peptide A, peptide B, CCK-8 or the above-mentioned diluent serving as a control was subcutaneously given to the animal. Thirty minutes thereafter, 0.03 mg/kg of apomorphine was subcutaneously given to the animal. The number of yawns induced by apomorphine was counted during a period of 30 minutes following administration of apomorphine. The test was conducted in a soundproof compartment for each animal. Wilcoxon rank-sum test was resorted to for statistical treatment.

[5] = test system: male Wister rats; test: Effect on the fixed ratio (FR20) responding in rats; settings: s.c., 15 min before 20 min session, dose giving count 50 with control as 100
Method: Effect on the fixed ratio responding in rats
The test was conducted according to the method described in Ahlenius S. and Engel J., Eur. J. Pharm., Vol. 15, 187-192 (1971).
Male Wister rats (weighing 240 to 320 g) were placed into Skinner box (product of Bil-Medika Co., Ltd., Japan, adapted to give a feed when a lever within the box is pressed) and made to learn how to take the food. In this test, one feed was given to the rats when the lever was pressed 20 times, i.e., fixed ratio (FR) 20. The rats showing stable FR20 response were divided into groups each including four rats.
Physiological saline (containing 1 mM of sodium hydrogencarbonate) containing a specified amount of a test compound was subcutaneously given to the rats of one group in a volume of 0.1 ml/100 g. (Physiological saline containing the above-mentioned amount of sodium hydrogencarbonate only was given to the control group). Fifteen minutes after the administration, the test animals were placed in the Skinner box, and the number of times the animals took the feed for 20 minutes was counted. The dose at which the count gained by the group of animals was 50, namely, ED50 value, was determined, with the count gained by the control group calculated as 100. The same procedure as above was repeated with use of the other test compounds.

[6] = test system: Male ICR mice; test: Inhibitory effect on hyperlocomotion induced by administration of methylphenidate; settings: for Inhibitory effect on methylphenidate-induced hyperlocomotion (in words): s.c.; for ED50, inhibition of methylphenidate-induced hyperlocomotion: s.c. with methylphenidate 10 mg/kg s.c., measured 1 hour after, 50 with control as 100
Method: Inhibitory effect on hyperlocomotion induced by administration of methylphenidate
Male ICR mice (weighing 24 to 30 g) were divided into groups, each including 10 mice. To one group of mice were subcutaneously given 10 mg/kg of methylphenidate and 0.1 ml/10 g of a saline solution of a specified amount of a test compound and 1 mM of sodium hydrogencarbonate. One hour after the administration, the test animals were checked for hyperlocomotion, which was measured with use of a device for measuring locomotion of small animals (wherein the motion of an animal shifts the center of graavity of the device to actuate a microswitch for the measurement of the amount of motion, see Folia Pharmacologica Japonica, 74, 629-639 (1978). For a control group, the same procedure as above was repeated except that the saline solution given was free from any test compound. The concentration of the test compound at which the result achieved by the group of animals was 50, namely, ED50 value, was determined, with the measurement obtained by the control group calculated as 100. The other compounds were tested in the same manner as above.

[7] = test system: Male ddy mice; test: Effect on climbing behavior induced by apomorphine (Pharmacological Test 7); parameters: key: sum of 7 scores; each 0 = four legs on floor, 2 = ≥3 legs on rods; settings: control 9.8 ± 0.7
Method: as §1
Male ddy mice (weighing 20 to 30 g) were used, with 10 mice in each group. Each mouse was placed into a cylindrical cage, 12 cm in diameter and 14 cm in height, made up of vertical rods of 2 mm in diameter spaced apart at a distance of 10 mm in a circular arrangement. The mouse was allowed to stand therein for 2 hours. Physiological saline containing a specified amount of a test compound (and 1 mM of sodium hydrogencarbonate) was subcutaneously given to one group of mice in a volume of 1 ml/10 g. (The same dose of saline only was given to a control group). […] The test was carried out in soundproof compartments.
as §2, §3
The other compounds were tested in the same manner as above. The test was carried out in soundproof compartments. Student's t-test was resorted to for statistical treatment.

SMILES	Activity counts (frequency per 60 min): Mean ± S.E. ([1]; 0.1 mg/kg s.c.) [frequency per 60 min]	Activity counts (frequency per 60 min): Mean ± S.E. ([1]; 0.3 mg/kg s.c.) [frequency per 60 min]	Effect on hyperlocomotion induced by TRH (in words) [1]	Average: Mean ± S.E. (total of 7 scores), climbing behavior ([2]; 0.01 mg/kg s.c.)	Average: Mean ± S.E. (total of 7 scores), climbing behavior ([2]; 0.1 mg/kg s.c.)	Average: Mean ± S.E. (total of 7 scores), climbing behavior ([2]; 1 mg/kg s.c.)	Effect on apomorphine-induced climbing behavior (in words) [2]	Increase of DOPAC content in hypothalamus [3]	Influence on content of metabolite (DOPAC, HVA, 5-HIAA) in frontal cortex, limbic forebrain and striatum [3]	Number of yawns (average) ([4]; 1 mg/kg s.c.)	Effect on yawning behavior induced by apomorphine (in words) [4]	ED50, inhibition of FR20 responding [5] [mg/kg]	Inhibitory effect on methylphenidate-induced hyperlocomotion (in words) [6]	ED50, inhibition of methylphenidate-induced hyperlocomotion [6] [mg/kg]	Average: Mean ± S.E. (total of 7 scores), climbing behavior ([7]; 0.1 mg/kg s.c.)	Average: Mean ± S.E. (total of 7 scores), climbing behavior ([7]; 0.3 mg/kg s.c.)	Average: Mean ± S.E. (total of 7 scores), climbing behavior ([7]; 1.0 mg/kg s.c.)	further results
CSCC[C@H](NC(=O)[C@H](Cc1ccc(OS(=O)(=O)O)cc1)NC(=O)[C@H](CC(=O)O)NC(=O)CCCC(=O)O)C(=O)NCC(=O)N[C@@H](Cc1c[nH]c2ccccc12)C(=O)N[C@@H](CCSC)C(=O)N[C@@H](CC(=O)O)C(=O)N[C@@H](Cc1ccccc1)C(N)=O [Peptide A, Glt--Asp--Tyr(SO 3 H)--Met--Gly--Trp--Met--Asp--Phe--NH2]	936 ± 115	613 ± 114	inhibit the hyperlocomotion induced by TRH	8.6 ± 0.6	5.3 ± 0.5	4.5 ± 1.0	inhibit the climbing behavior	about 60%	Neither of peptide A and peptide B was found to influence	0	inhibit the yawning behavior induced by apomorphine	–	–	–	–	–	–	Activity counts (frequency per 60 min): Mean ± S.E. ([1]; 1 mg/kg s.c.): 148 ± 34 frequency per 60 min; Average: Mean ± S.E. (total of 7 scores), climbing behavior ([2]; 0.03 mg/kg s.c.): 7.9 ± 0.6; Average: Mean ± S.E. (total of 7 scores), climbing behavior ([2]; 0.3 mg/kg s.c.): 5.1 ± 0.7; Number of yawns (average) ([4]; 0.3 mg/kg s.c.): 1.5
CSCC[C@H](NC(=O)[C@H](Cc1ccc(OS(=O)(=O)O)cc1)NC(=O)[C@H](CC(=O)O)NC(=O)[C@@H]1CCC(=O)N1)C(=O)NCC(=O)N[C@@H](Cc1c[nH]c2ccccc12)C(=O)N[C@@H](CCSC)C(=O)N[C@@H](CC(=O)O)C(=O)N[C@@H](Cc1ccccc1)C(N)=O [Peptide B, pGlu--Asp--Tyr(SO3 H)--Met--Gly--Trp--Met--Asp--Phe--NH2]	601 ± 78	626 ± 143	inhibit the hyperlocomotion induced by TRH	8.7 ± 0.8	5.4 ± 0.8	4.7 ± 1.1	inhibit the climbing behavior	about 60%	Neither of peptide A and peptide B was found to influence	1.0	inhibit the yawning behavior induced by apomorphine	–	–	–	–	–	–	Activity counts (frequency per 60 min): Mean ± S.E. ([1]; 0.03 mg/kg s.c.): 1009 ± 165 frequency per 60 min
CSCC[C@H](NC(=O)[C@H](Cc1ccc(OS(=O)(=O)O)cc1)NC(=O)CCC(=O)O)C(=O)NCC(=O)N[C@@H](Cc1c[nH]c2ccccc12)C(=O)N[C@@H](CCSC)C(=O)N[C@@H](CC(=O)O)C(=O)N[C@@H](Cc1ccccc1)C(N)=O [Peptide D, Suc--Tyr(SO3 H)--Met--Gly--Trp--Met--Asp--Phe--NH2] (HELM PEPTIDE1{[O=C(O)CCC(=O)[*:2]].[O=C([C@H](Cc1ccc(OS(=O)(=O)O)cc1)N[*:1])[*:2]].M.G.W.M.D.F.[am]}$$$$V2.0)	–	–	–	–	–	–	–	–	–	–	–	0.0102	especially high inhibitory effect	0.0345	7.0 ± 0.3	5.9 ± 0.9	4.5 ± 1.0	–
CSCC[C@H](NC(=O)[C@H](Cc1ccc(OS(=O)(=O)O)cc1)NC(=O)CCCC(=O)O)C(=O)NCC(=O)N[C@@H](Cc1c[nH]c2ccccc12)C(=O)N[C@@H](CCSC)C(=O)N[C@@H](CC(=O)O)C(=O)N[C@@H](Cc1ccccc1)C(N)=O [Peptide E, Glt--Tyr(SO3 H)--Met--Gly--Trp--Met--Asp--Phe--NH2] (HELM PEPTIDE1{[O=C(O)CCCC(=O)[*:2]].[O=C([C@H](Cc1ccc(OS(=O)(=O)O)cc1)N[*:1])[*:2]].M.G.W.M.D.F.[am]}$$$$V2.0)	–	–	–	–	–	–	–	–	–	–	–	0.004	especially high inhibitory effect	0.0879	9.1 ± 0.9	7.9 ± 0.9	6.5 ± 0.7	–
